Experimental findings from the RepoRT retention time repository are described below.

The nature of the data set: Waters ACQUITY UPLC HSS T3, 0.4 mL/min; A: water + 0.1% formic acid; B: acetonitrile + 0.1% formic acid; gradient (min/%B) 0/5 1.5/5 12/95 14/95 14.01/100 17/100. The following applies: stereoisomer not certain.

Regarding `CC12CCC(O)(CC1OC1OC(CO)C(O)C(O)C1O)C(C)(C)O2` (stereo unspecified), the LC retention time is 3.99 min.

For `CCCCCCCCCCCCCCCCCCOC(=O)CC(O)(CC(=O)O)C(=O)O` (stereo unspecified), the LC retention time was 10.5 min.

For the molecule `CCCCCCC=CCCCCCCCCCC(=O)OC(CCC(=O)[O-])[N+](C)(C)C` (stereo unspecified), the LC retention time amounted to 9.56 min.

Turning to `CC(C)CC(NC(=O)OC(C)(C)C)C(=O)O` (stereo unspecified), the LC retention time is 3 min.

`CCC(C)C(=O)OC1CC(C)(O)C=C2C=CC(C)C(CCC3CC(O)CC(=O)O3)C21` (stereo unspecified): the LC retention time stood at 5.18 min.

For `CC(CCC(=O)NCCS(=O)(=O)O)C1CCC2C3C(O)C(O)C4CC(O)CCC4(C)C3CCC12C` (stereo unspecified), the LC retention time came out at 4.43 min.

Regarding `CC1=CC(=O)CC(C)(C)C1(O)CCC(C)OC1OC(COC2OCC(O)(CO)C2O)C(O)C(O)C1O` (stereo unspecified), the LC retention time came to 4.44 min.

Take `CCCC(=O)OC(CC(=O)[O-])C[N+](C)(C)C` (stereo unspecified): the LC retention time was 3 min.

Turning to `CCCC(=O)OCCC(S)CCC` (stereo unspecified), the LC retention time stood at 0.838 min.

In the case of `COC1(CCC(C)COC2OC(CO)C(O)C(O)C2O)OC2CC3C4CCC5CC(=O)CCC5(C)C4CCC3(C)C2C1C` (stereo unspecified), the LC retention time was found to be 9.93 min.

As for `O=C(O)CCCSCCCCSCCCC(=O)O`, the LC retention time came to 0.766 min.

Turning to `CC(C)SC(C)C`, the LC retention time stood at 1.02 min.

For `CC1CCC2(C(=O)O)CCC3(C)C(=CC(=O)C4C5(C)CCC(OC(=O)c6ccccc6)C(C)(C)C5CCC43C)C2C1C` (stereo unspecified), the LC retention time came to 11 min.

As for `O=C(Oc1cc(O)cc(O)c1C(=O)O)c1ccc(O)c(O)c1`, the LC retention time was 1.15 min.

`COC1CCC(=O)N1` (stereo unspecified): the LC retention time worked out at 0.851 min.

On to `O=c1[nH]cnc2nc[nH]c12`, for which the LC retention time was 1.1 min.

As to `C[N+](C)(C)CCO`, the LC retention time was determined as 0.706 min.

Consider `CCCCCC(=O)CCOC1OC(CO)C(O)C(O)C1O` (stereo unspecified), for which the LC retention time was 4.89 min.

For the molecule `CCCCCCOC(=O)CC(C)S` (stereo unspecified), the LC retention time was 0.838 min.

On to `CC(=O)c1cnccn1`, for which the LC retention time is 1.06 min.

Consider `CC(=O)NC(CO)C(=O)O` (stereo unspecified), for which the LC retention time was determined as 0.786 min.

As for `CC(O)C1CCC2C3CCC4=CC(=O)CCC4(C)C3CCC12C` (stereo unspecified), the LC retention time was determined as 11.8 min.

On to `CC1=CC(O)CC(C)(C)C1(O)C=CC(C)OC1OC(COC2OCC(O)(CO)C2O)C(O)C(O)C1O` (stereo unspecified), for which the LC retention time is 4.44 min.

For `CC(C)C1=CC2(O)CCC3C(C)(C(=O)O)CCCC3(C)C2CC1=O` (stereo unspecified), the LC retention time was determined as 4.99 min.

Regarding `O=S(=O)([O-])CCCCCCCP(CCCCCCCS(=O)(=O)[O-])CN(CP(CCCCCCCS(=O)(=O)[O-])CCCCCCCS(=O)(=O)[O-])c1ccccc1`, the LC retention time was 1.3 min.

Turning to `COc1cc(CCCO)ccc1OC(CO)COC1OCC(O)C(O)C1O` (stereo unspecified), the LC retention time turned out to be 0.755 min.

In the case of `CCCCCCCCCCCCCCCCCCOC(=O)C(O)(CC(=O)O)CC(=O)O`, the LC retention time was 10.5 min.

With `C=C(C)C1CCC(C)(O)C1CC1=C(O)C(=C(O)c2ccccc2)C(=O)C(CC=C(C)C)(CC=C(C)C)C1=O` (stereo unspecified), the LC retention time worked out at 8.61 min.

`CC(C)CC(N)C(=O)O` (stereo unspecified): the LC retention time stood at 1.31 min.

Take `CCCCCC=CCC(O)C=CC=CCC=CCCCC(=O)NCCS(=O)(=O)O` (stereo unspecified): the LC retention time came out at 4.09 min.

`NCCS(=O)(=O)O`: the LC retention time stood at 0.777 min.

`Nc1nc2c(ncn2CCC(CO)CO)c(=O)[nH]1`: the LC retention time amounted to 1.03 min.

As to `CCCCCC(O)C=CC1=CCC(=O)C1CC=CCCCC(=O)O` (stereo unspecified), the LC retention time is 4.99 min.

Regarding `CCCCCC(O)C=CC1OC(O)CC(O)C1CC=CCC(=O)O` (stereo unspecified), the LC retention time turned out to be 8.51 min.

Consider `O=C(OCC1OC(Oc2ccc(C=Cc3cc(O)cc(O)c3)cc2O)C(O)C(O)C1O)c1cc(O)c(O)c(O)c1` (stereo unspecified), for which the LC retention time worked out at 1.11 min.

With `CCCCC=CCCCCCCCC(=O)OCC(COP(=O)(O)OCC(N)C(=O)O)OC(=O)CCCCCCCCCCC` (stereo unspecified), the LC retention time was 5.43 min.

Turning to `NC(CCC(=O)O)C(=O)O` (stereo unspecified), the LC retention time was found to be 0.786 min.

On to `CCCCCCCCCCCCCCCCCCC(=O)OCC(O)COP(=O)(O)OCC(N)C(=O)O` (stereo unspecified), for which the LC retention time was 5.17 min.

Take `CCCCCCCCCCCCCCCCCC(=O)OCC(O)COP(=O)(O)OCC(O)CO` (stereo unspecified): the LC retention time worked out at 5.64 min.

On to `CC12CCC(=O)C=C1CCC1C2C(O)CC2(C)C(C(O)CC(=O)O)CCC12` (stereo unspecified), for which the LC retention time was determined as 5.01 min.

`CC1CCC(C(C)(O)COC2OC(CO)C(O)C(O)C2O)CC1O` (stereo unspecified): the LC retention time turned out to be 5.08 min.

`CC(C)(OC1OC(CO)C(O)C(O)C1O)C1CCC(O)(CO)CC1` (stereo unspecified): the LC retention time came out at 5.08 min.

On to `CCCCCCCCCCCCCCCC(=O)OCC(COP(=O)([O-])OCC[N+](C)(C)C)OC(=O)CCCC(O)C=CC=O` (stereo unspecified), for which the LC retention time was determined as 5.43 min.

For `CC1=CC(=O)C2(C(C)C)C(=O)C3=C(C(O)C4OC(=O)C35CCCC(C)(C)C45)C12` (stereo unspecified), the LC retention time came out at 10.6 min.

On to `CCC=CCC(O)C=CC=CC=CC=CC(O)C(O)CC=CCCC(=O)O` (stereo unspecified), for which the LC retention time was 5.01 min.

In the case of `CC(=O)OCC(N)C(=O)O` (stereo unspecified), the LC retention time was determined as 0.786 min.

On to `CC(C)C(CCC(C)C1CC(O)C2C1(C)CCC1C3(C)CCC(OC4OCC(O)C(O)C4O)CC3C(O)CC12O)OC1OCC(O)C(O)C1O` (stereo unspecified), for which the LC retention time turned out to be 5.56 min.

Turning to `CC1CCC(C(C)(O)CO)CC1OC1OC(CO)C(O)C(O)C1O` (stereo unspecified), the LC retention time was 5.08 min.

For `CC1(O)CCC(C(C)(C)OC2OC(CO)C(O)C(O)C2O)CC1O` (stereo unspecified), the LC retention time came to 5.08 min.

On to `CNC(C)(C)C(=O)O`, for which the LC retention time was 1.02 min.

For the molecule `CC1(COC(=O)c2ccccc2)CCC2(C)CCC3(C)C4=CCC5C(C)(CCC(OC(=O)c6ccc(N)cc6)C5(C)C)C4=CCC3(C)C2C1` (stereo unspecified), the LC retention time came out at 10.9 min.

Consider `CCCCCC=CCC(O)CC=CC=CC(SCC(N)C(=O)O)C(O)CCCC(=O)O` (stereo unspecified), for which the LC retention time worked out at 9.02 min.

Regarding `Nc1ncnc2c1ncn2C1OC(CO)C(O)C1OP(=O)(O)O` (stereo unspecified), the LC retention time was determined as 0.934 min.

For the molecule `CN1C2CCC1(O)C(O)C(O)C2O` (stereo unspecified), the LC retention time worked out at 1.05 min.

In the case of `CN1CC(=O)NC1=N`, the LC retention time was 0.794 min.

For `Nc1cncn1C1OC(COP(=O)(O)O)C(O)C1O` (stereo unspecified), the LC retention time was found to be 0.711 min.

Take `CC(=O)C1CCC2C3CCC4CC(=O)CCC4(C)C3CCC12C` (stereo unspecified): the LC retention time amounted to 11.8 min.

As for `CC1(C)OC2(C)C(O)CC1CC2OC1OC(CO)C(O)C(O)C1O` (stereo unspecified), the LC retention time turned out to be 3.99 min.

Consider `CCC(C)C(=O)OC(CC(=O)[O-])C[N+](C)(C)C` (stereo unspecified), for which the LC retention time came out at 4.04 min.

As for `CC1OC(CC(=O)O)Cc2c1c(O)c1c(O)c(-c3cc(=O)c4c(=O)c5c(c(=O)c=4c3=O)C(C)OC(CC(=O)O)C5)cc(O)c1c2O` (stereo unspecified), the LC retention time worked out at 1.05 min.

As for `CCCCCC=CCC=CCCCCCCCC(=O)OCC(COP(=O)(O)OCC(O)CO)OC(=O)CCCCCCCC=CCCCCCC` (stereo unspecified), the LC retention time was 13.9 min.

As for `NC(=O)c1cccnc1`, the LC retention time was 1.06 min.

On to `COC(=O)C12CCC(C)(C)CC1C1=CCC3C4(C)CCC(OC(=O)C=Cc5ccc(OC)cc5)C(C)(C)C4CCC3(C)C1(C)CC2` (stereo unspecified), for which the LC retention time is 13.1 min.

Take `CCC=CCC=CCC=CCCCCCCCC(=O)OC(COC(=O)CCCCCCCCCCCCCCC)COP(=O)(O)OCC(O)CO` (stereo unspecified): the LC retention time is 13.9 min.

Regarding `COC(=O)C1(OC(C)=O)CC23CCC4C(C)(O)CCCC4(C)C2CCC1C3` (stereo unspecified), the LC retention time worked out at 5.17 min.

Take `CCCCCC(O)C=CC1C(O)CC(O)C1CC(=O)CCC(=O)O` (stereo unspecified): the LC retention time is 8.51 min.
